Measured values from patent publication US20180303092A1, “AMINE SALTS OF CARBOXYLIC ACID HERBICIDES” (Taminco BVBA, priority 2017, published 2018).

Assay: Viscosity of max load amine salt solutions (Brookfield viscometer, nr. 87 spindle)
Assay type: physicochemical
Settings: 2,4-D amine salts; 20° C.
Experimental: The viscosity of the solutions prepared as above was determined using the Brookfield nr. 87 spindle. The applied speed depended on the viscosity of the sample. The torque applied was 50-80% of the machine's maximum. The results are expressed as mPa.
(§1) Several amine herbicide formulations were prepared as described above in Examples 1 and 2. The viscosity of various formulations was measured using a Brookfield viscometer with nr.87 spindle at 20° C. Wettability was measured by visually measuring the contact angle after placing a standard droplet on a parafilm layer (hydrophobic).

| SMILES | Viscosity |
| --- | --- |
| C[N+](C)(C)CCO.O=C([O-])COc1ccc(Cl)cc1Cl [2,4-D Cbase salt, reference compound] | 12.4 mPa |
| CNC.O=C(O)COc1ccc(Cl)cc1Cl [2,4-D DMA salt, reference compound] | 38.8 mPa |
| CN(C)CCO.O=C(O)COc1ccc(Cl)cc1Cl [2,4-D DMAE salt] | 74.0 mPa |
| CN(C)CCCN.O=C(O)COc1ccc(Cl)cc1Cl [2,4-D DMAPA salt] | 1,455.0 mPa |
| CC(C)CN.O=C(O)COc1ccc(Cl)cc1Cl [2,4-D MIBA salt] | 60.1 mPa |
| CNCCO.O=C(O)COc1ccc(Cl)cc1Cl [2,4-D MMEA salt] | 21.2 mPa |

Same assay, conditions: dicamba amine salt concentrates; 20° C.

| SMILES | Viscosity |
| --- | --- |
| CC(N)CN.COc1c(Cl)ccc(Cl)c1C(=O)O.COc1c(Cl)ccc(Cl)c1C(=O)O [Dicamba 1,2-DAP salt] | 218.0 mPa |
| COc1c(Cl)ccc(Cl)c1C(=O)[O-].C[N+](C)(C)CCO [Dicamba Cbase salt] | 13.5 mPa |
| COc1c(Cl)ccc(Cl)c1C(=O)O.NCCOCCO [Dicamba DGA salt, reference compound] | 562.5 mPa |
| CNC.COc1c(Cl)ccc(Cl)c1C(=O)O [Dicamba DMA salt, reference compound] | 58.8 mPa |
| CN(C)CCO.COc1c(Cl)ccc(Cl)c1C(=O)O [Dicamba DMAE salt] | 184.4 mPa |
| CC(C)CN.COc1c(Cl)ccc(Cl)c1C(=O)O [Dicamba MIBA salt] | 46.1 mPa |
| CNCCO.COc1c(Cl)ccc(Cl)c1C(=O)O [Dicamba MMEA salt] | 3,967.0 mPa |

Assay: Wetting properties: contact angle of a droplet of max load product on parafilm layer
Assay type: physicochemical
Settings: 2,4-D amine salts; droplet on hydrophobic parafilm, read by eye
Experimental: A visual test was used to determine the wetting property. FIG. 2 is an illustration of the test. A small droplet 11 of the max load product mentioned above was deposited by a syringe pointed vertically down onto a parafilm layer 10, which is hydrophobic. A profile picture of the droplet 11 was then captured by a camera. The approximate contact angle 13 of the droplet 11 with the parafilm layer 10 was then measured by eye using a protractor.
The wetting angle determines the surface energy or chemical affinity of the salt solution with the apolar reference material. A high wetting angle indicates a […] of hydrophobic surfaces.
as §1

| SMILES | Wetting Angle |
| --- | --- |
| C[N+](C)(C)CCO.O=C([O-])COc1ccc(Cl)cc1Cl [2,4-D Cbase salt, reference compound] | 145 ° |
| CNC.O=C(O)COc1ccc(Cl)cc1Cl [2,4-D DMA salt, reference compound] | 130 ° |
| CN(C)CCO.O=C(O)COc1ccc(Cl)cc1Cl [2,4-D DMAE salt] | 105 ° |
| CN(C)CCCN.O=C(O)COc1ccc(Cl)cc1Cl [2,4-D DMAPA salt] | 125 ° |
| CC(C)CN.O=C(O)COc1ccc(Cl)cc1Cl [2,4-D MIBA salt] | 155 ° |
| CNCCO.O=C(O)COc1ccc(Cl)cc1Cl [2,4-D MMEA salt] | 110 ° |

Same assay, conditions: dicamba amine salt concentrates; droplet on hydrophobic parafilm, read by eye

| SMILES | Wetting Angle |
| --- | --- |
| CC(N)CN.COc1c(Cl)ccc(Cl)c1C(=O)O.COc1c(Cl)ccc(Cl)c1C(=O)O [Dicamba 1,2-DAP salt] | 105 ° |
| COc1c(Cl)ccc(Cl)c1C(=O)[O-].C[N+](C)(C)CCO [Dicamba Cbase salt] | 115 ° |
| COc1c(Cl)ccc(Cl)c1C(=O)O.NCCOCCO [Dicamba DGA salt, reference compound] | 120 ° |
| CNC.COc1c(Cl)ccc(Cl)c1C(=O)O [Dicamba DMA salt, reference compound] | 135 ° |
| CN(C)CCO.COc1c(Cl)ccc(Cl)c1C(=O)O [Dicamba DMAE salt] | 115 ° |
| CC(C)CN.COc1c(Cl)ccc(Cl)c1C(=O)O [Dicamba MIBA salt] | 130 ° |
| CNCCO.COc1c(Cl)ccc(Cl)c1C(=O)O [Dicamba MMEA salt] | 120 ° |

Assay: Maximum loading of herbicide amine salt in water (Karl-Fischer water content, HCl titration of amine)
Assay type: physicochemical
Settings: 2,4-D amine salts; amine in maximum loaded solution in water
Description: Neutralizing acidic herbicides (e.g., 2,4-D, dicamba, glyphosate, glufosinate) with amines can result in the formation of highly water soluble salts. However, practical inconveniences may occur when adding liquid amines to the solid herbicides, such as the formation of wetted powder, poorly mixed slurries, two apparently non-mixed layers, etc. To efficiently prepare a salt, the method, shown as a flowchart in FIG. 1, has been developed.
Referring to FIG. 1, step 100 involves using a mass balance to weigh 25 g of the active ingredient (a solid acidic herbicide, such as 2,4-D or dicamba) in a glass bottle. An equimolar amount of a basic amine (typically a liquid) is added to this glass bottle. Last, 2 mL of water is added. After adding the three compounds, the bottle is capped and placed on a shaking device for at least 12 hours.
At step 109, theoretical neutralization has taken place. The salt concentration can be quantified by titration. To confirm that the solid layer is solid salt and the top layer is a saturated (max. loading) solution, a small amount of water is added (the amounts of water should be small enough to avoid a complete dissolution of the solid salt). After re-equilibrium during at least 12 hours of shaking, and under the condition that two phases are still present, the salt concentration is determined again. If salt concentrations are identical as the original values, then it can be concluded that a maximum loaded solution was obtained.
To determine maximum loading of the salt in water, the method shown in the flowchart of FIG. 1 was used. The resulting sample contained at least two layers: a top layer of liquid and a bottom layer of solid salt. A water and amine determination was made of the top layer.
To check the water content, a well-established method of Karl-Fischer was used. This method gives an accurate wt % of H2O in the sample.
To determine the amine content, HCl-titration was used. HCl (0.1 N) was used as the titrant, and methanol was used as the solvent. 100-400 mg of the sample was taken from the liquid layer so that only 10-20 mL of the titrant was needed. The result was given in an EP. The following calculation was used to obtain the amine wt %:
In general, the sample's liquid phase only contains three components: water, free amine, and the herbicide salt. Therefore, the following calculation was used to determine the salt wt %:
wt %salt=100−wt %amine−wt %water
The results below are reported in g a.e./L (acid equivalent). […] The results were calculated using the following equation: […]
The MMs in the equation above are molecular weights (g/mol). ρ is the density of the liquid (g/mL), which may be measured using the density meter Anton Paar DMA 4500. F is a factor that takes into account the amount of base or acid groups on the amine or acid, respectively.
The g amine/L reported below was calculated using the following equation: […]
25.02 g of dicamba herbicide was mixed with 4.16 g of 1,2-DAP and 5.88 g of water. The ingredients were shaken for a minimum of 24 hours at room temperature (20° C.) to obtain an oversaturated salt solution (with precipitated salt crystals). Theoretically, 1 mol of dicamba can be neutralized using 0.5 mol of 1,2-DAP. Water was gradually added until all the salt crystals were dissolved to form a maximum loaded clear solution. The loading of the active ingredient was determined based on the amine content by HCl titration and the water content by Karl-Fischer.
Using the same methodology as described in Example 1, high-loaded 2,4-D salt solutions were prepared.

| SMILES | Max Load amine g/L |
| --- | --- |
| C[N+](C)(C)CCO.O=C([O-])COc1ccc(Cl)cc1Cl [2,4-D Cbase salt, reference compound] | 315.6 amine g/L |
| CNC.O=C(O)COc1ccc(Cl)cc1Cl [2,4-D DMA salt, reference compound] | 264.4 amine g/L |
| CN(C)CCO.O=C(O)COc1ccc(Cl)cc1Cl [2,4-D DMAE salt] | 316.9 amine g/L |
| CN(C)CCCN.O=C(O)COc1ccc(Cl)cc1Cl [2,4-D DMAPA salt] | 210.6 amine g/L |
| CC(C)CN.O=C(O)COc1ccc(Cl)cc1Cl [2,4-D MIBA salt] | 183.5 amine g/L |
| CNCCO.O=C(O)COc1ccc(Cl)cc1Cl [2,4-D MMEA salt] | 302.5 amine g/L |

Same assay, conditions: 2,4-D amine salts; maximum loaded solution in water; acid equivalent of herbicide

| SMILES | Max Load g ae/L |
| --- | --- |
| C[N+](C)(C)CCO.O=C([O-])COc1ccc(Cl)cc1Cl [2,4-D Cbase salt, reference compound] | 195.0 g ae/L |
| CNC.O=C(O)COc1ccc(Cl)cc1Cl [2,4-D DMA salt, reference compound] | 936.1 g ae/L |
| CN(C)CCO.O=C(O)COc1ccc(Cl)cc1Cl [2,4-D DMAE salt] | 624.7 g ae/L |
| CN(C)CCCN.O=C(O)COc1ccc(Cl)cc1Cl [2,4-D DMAPA salt] | 863.5 g ae/L |
| CC(C)CN.O=C(O)COc1ccc(Cl)cc1Cl [2,4-D MIBA salt] | 497.8 g ae/L |
| CNCCO.O=C(O)COc1ccc(Cl)cc1Cl [2,4-D MMEA salt] | 774.3 g ae/L |

Same assay, conditions: dicamba 1,2-DAP salt; Example 1

| SMILES | Maximum loading, amine |
| --- | --- |
| CC(N)CN.COc1c(Cl)ccc(Cl)c1C(=O)O.COc1c(Cl)ccc(Cl)c1C(=O)O [Dicamba 1,2-DAP salt] | 365.9 g amine/L |

Same assay, conditions: dicamba amine salts; amine in maximum loaded solution in water

| SMILES | Max Load amine g/L |
| --- | --- |
| CC(N)CN.COc1c(Cl)ccc(Cl)c1C(=O)O.COc1c(Cl)ccc(Cl)c1C(=O)O [Dicamba 1,2-DAP salt] | 365.9 amine g/L |
| COc1c(Cl)ccc(Cl)c1C(=O)[O-].C[N+](C)(C)CCO [Dicamba Cbase salt] | 308.5 amine g/L |
| COc1c(Cl)ccc(Cl)c1C(=O)O.NCCOCCO [Dicamba DGA salt, reference compound] | 435.5 amine g/L |
| CNC.COc1c(Cl)ccc(Cl)c1C(=O)O [Dicamba DMA salt, reference compound] | 211.1 amine g/L |
| CN(C)CCO.COc1c(Cl)ccc(Cl)c1C(=O)O [Dicamba DMAE salt] | 408.3 amine g/L |
| CC(C)CN.COc1c(Cl)ccc(Cl)c1C(=O)O [Dicamba MIBA salt] | 475.0 amine g/L |
| CNCCO.COc1c(Cl)ccc(Cl)c1C(=O)O [Dicamba MMEA salt] | 357.7 amine g/L |

Same assay, conditions: dicamba amine salts; maximum loaded solution in water, room temperature (20° C.); acid equivalent of herbicide

| SMILES | Max Load g ae/L |
| --- | --- |
| CC(N)CN.COc1c(Cl)ccc(Cl)c1C(=O)O.COc1c(Cl)ccc(Cl)c1C(=O)O [Dicamba 1,2-DAP salt] | 803.2 g ae/L |
| COc1c(Cl)ccc(Cl)c1C(=O)[O-].C[N+](C)(C)CCO [Dicamba Cbase salt] | 481.5 g ae/L |
| COc1c(Cl)ccc(Cl)c1C(=O)O.NCCOCCO [Dicamba DGA salt, reference compound] | 854.9 g ae/L |
| CNC.COc1c(Cl)ccc(Cl)c1C(=O)O [Dicamba DMA salt, reference compound] | 1036.8 g ae/L |
| CN(C)CCO.COc1c(Cl)ccc(Cl)c1C(=O)O [Dicamba DMAE salt] | 849.0 g ae/L |
| CC(C)CN.COc1c(Cl)ccc(Cl)c1C(=O)O [Dicamba MIBA salt] | 713.7 g ae/L |
| CNCCO.COc1c(Cl)ccc(Cl)c1C(=O)O [Dicamba MMEA salt] | 928.8 g ae/L |

Same assay, conditions: dicamba amine salts; summary text b115

| SMILES | maximum loading |
| --- | --- |
| CC(N)CN.COc1c(Cl)ccc(Cl)c1C(=O)O.COc1c(Cl)ccc(Cl)c1C(=O)O [Dicamba 1,2-DAP salt] | 803.2 g/L |
| COc1c(Cl)ccc(Cl)c1C(=O)O.NCCOCCO [Dicamba DGA salt, reference compound] | 854.9 g/L |
| CNC.COc1c(Cl)ccc(Cl)c1C(=O)O [Dicamba DMA salt, reference compound] | 1036 g/L |
